For series [1], the system named is HCV genotype 1b replicon (Con1). The conditions noted are these: HCV1b replicon; Gao et al., Nature 2010; cited from earlier work.
Series [2] relates to HCV genotype 2a replicon (JFH1). The following applies: Gao et al., Nature 2010; cited from earlier work.
The subject of series [3] is HCV genotype 1b replicon (Con1). Nature of the series: Inhibitory assay for HCV replicons (luciferase), genotype 1b Con1. It counts as cell-based, Hepatitis C virus. The following applies: HCV-1b replicon cell lines, single agent. The procedure: (2) Cell culture and HCV inhibitors. Huh-7.5 cells and their derivative HCV replicon cell lines were maintained in Dulbecco's modified Eagle's medium (DMEM, Gibco/BRL) that was supplemented with 100 U/mL penicillin-streptomycin (Gibco/BRL), 0.1 mM nonessential amino acid (NEAA, Gibco/BRL) and 10% fetal bovine serum (FBS) heat inactivated at 37° C. in 5% CO2. The HCV replicon cell lines were isolated from colonies as described in Lohman et al., Science 285:110-3 (1999). The culture medium for the replicon cells was additionally supplemented with 0.25 to 0.5 mg/mL of G418, unless specified otherwise. Compound DBPR110 and sofosbuvir were synthesized at the Institute of Biotechnology and Pharmaceutical Research at the National Health Research Institutes in Taiwan. Telaprevir (Lin et al., Antimicrob Agents Chemother, 50:1813-22 (2006)) was purchased from Acme Biosciences (Belmont, Calif.). The compounds were stored at −20° C. as 10 to 500 mM dimethyl sulfoxide (DMSO) stock solutions until the assay. IFN-α was purchased from Calbiochem (La Jolla, Calif.) and stored at −80° C.
(3) Inhibitory assay for HCV replicons. Cells were seeded at 1×10^4 (high-throughput screening assay) or 1×10^5 (regular assay) cells/well in 96- or 12-well plate, respectively, and incubated for 4 h. The medium was then aspirated and replaced with 0.1 (96-well plate) or 1 (12-well plate) mL of complete medium containing a single compound or combinations of compounds in serial concentration(s). The plates with compounds were incubated for 72 h and then assayed for luciferase expression (Promega). The EC50 of each compound was determined independently and used to determine the range of concentrations used for the combination experiments. All data are presented as the means±standard deviations (SD) from three independent experiments. The selectivity index (SI) was calculated as the ratio of the CC50 to the EC50.
For orientation: A replicon is a self-replicating genome or part of one, used to study replication in cells.

The nature of series [4]: Cytotoxicity assay (MTT). It counts as cell-based. The following applies: human. The procedure: (§1) (4) Cytotoxicity assay. The sensitivity of the cell lines to inhibitors was examined using a 3-(4,5-Dimethylthiazol-2-yl)-2,5-diphenyltetrazolium bromide (MTT) assay. Briefly, Huh-7.5 cells were plated at a density of 1×10^5 cells per well in 12-well plates containing 1 mL of culture medium for 4 h. Serial dilutions of the compounds or DMSO (negative control) were added, and the plates were incubated for an additional 72 h. The MTT reagent was then added to each well, and the plates were incubated for 3 h at 37° C. in a humidified 5% CO2 atmosphere before reading at a wavelength of 563 nm using an ELISA plate reader. All data are presented as the means +/−SD from four independent experiments.

Series [5] has as its system HCV genotype 1b replicon. Nature of the series: Inhibitor combination study (combination index, CalcuSyn). The conditions noted are these: at the concentrations used in the combination experiments.
In series [6] the test system is Huh-7.5 cells. Nature of the series: Cytotoxicity assay (MTT). It counts as cell-based. The following applies: HCV-1b replicon cell lines; single agent. The procedure: as §1
[7] abbreviates: Hepatitis C virus, read-out: EC50.
The mark [8] stands for this setting: Hepatitis C virus, read-out: EC90.
The mark [9] stands for this setting: HCV-1b replicon cell lines, single agent, read-out: CC50.

Like-named read-outs stand apart in the source and are kept apart here.

Turning to `COC(=O)N[C@H](C(=O)N1CCC[C@H]1c1nc(-c2ccc(-c3ccc(-c4c[nH]c([C@@H]5CCCN5C(=O)[C@@H](NC(=O)OC)C(C)C)n4)cc3)cc2)c[nH]1)C(C)C` [BMS-790052], the EC50 in series [1] was 0.009 nM; in series [2], 0.071 nM.

For orientation: CC50 means the concentration that lowers cell viability or growth by half. On to `CC(C)(C)NC(=O)N[C@H](C(=O)N1C[C@H]2[C@@H]([C@H]1C(=O)NC(CC1CCC1)C(=O)C(N)=O)C2(C)C)C(C)(C)C` (stereo partly drawn) [Boceprevir, boceprevir, reference compound], for which, in series [3] (setting [7]), the EC50 was found to be 361 ± 19.9 nM. Moreover, in series [3] (setting [8]), the EC90 was 962 ± 21.5 nM. The cytotoxic concentration (CC50) at 72 h in series [4] (setting [9]) is greater than 5000 nM. Besides, the cytotoxicity result in series [5] is “No cytotoxicity was observed”.

`NC(=O)c1ncn([C@@H]2O[C@H](CO)[C@@H](O)[C@H]2O)n1` [Ribavirin, ribavirin, reference compound]: in series [3] (setting [7]), the EC50 came to 20500 ± 3500 nM. In series [3] (setting [8]), the EC90 came to 95000 ± 20100 nM. The compound further had a CC50 at 72 h in series [4] greater than 200000 nM.

Take `CC(C)OC(=O)[C@H](C)N[P@](=O)(OC[C@H]1O[C@@H](n2ccc(=O)[nH]c2=O)[C@](C)(F)[C@@H]1O)Oc1ccccc1` [Sofosbuvir, sofosbuvir, reference compound]: the EC50 in series [3] (setting [7]) was 91.5 ± 18.3 nM. Besides, the EC90 in series [3] (setting [8]) is 323 ± 66.1 nM. In addition, the cytotoxic concentration (CC50) at 72 h in series [4] (setting [9]) was greater than 5000 nM. Moreover, the cytotoxicity entry in series [5] was “No cytotoxicity was observed”.

For the compound `CCC[C@H](NC(=O)[C@@H]1[C@H]2CCC[C@H]2CN1C(=O)[C@@H](NC(=O)[C@@H](NC(=O)c1cnccn1)C1CCCCC1)C(C)(C)C)C(=O)C(=O)NC1CC1` [Telaprevir, telaprevir, reference compound], the EC50 in series [3] (setting [7]) was 301.6 ± 2.8 nM. In addition, the EC90 in series [3] (setting [8]) was determined as 912 ± 75.4 nM. Further, the CC50 at 72 h in series [4] (setting [9]) is greater than 5000 nM. The cytotoxicity entry in series [5] is reported as “No cytotoxicity was observed”.

IFN-α: in series [3], the EC50 is given as 35.1±4.7 IU/mL and the EC90 was determined as 327.0 ± 0.01 IU/mL. The CC50 in series [6] was >2,000 IU/mL. The cytotoxicity entry in series [5] was “No cytotoxicity was observed”.

The values are drawn from patent US20140127158A1, “COMBINATION THERAPY FOR HEPATITIS C VIRUS INFECTION” (National Health Research Institute, priority 2012, published 2014).
